The substances below were run on 1.3 kbp, 2.8 kbp, and 3.6 kbp of human β-globin (assay: Amplification of long-chain DNA in PCR using dUTP). Conditions: dTTP replaced by dUTP, 35 cycles.
Format: biochemical
Parameters: key to Results of PCR in the presence of dUTP 1.3 kbp / Results of PCR in the presence of dUTP 2.8 kbp / Results of PCR in the presence of dUTP 3.6 kbp: A: Amplified; B: Amplified (faint band); C: Not amplified
Outline: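 Enzymes (1 U, premixed with KOD antibody) amplified 1.3, 2.8 and 3.6 kbp β-globin from 10 ng human genomic DNA with 2 mM dNTPs having dUTP in place of dTTP, 1.5 mM MgSO4, 35 cycles (98° C. 10 s, 65° C. 30 s, 68° C. ~1 min/kbp). Taq control: 2.5 U, 94° C. denaturation. Yield judged by ethidium-stained agarose gel.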
“KOD I142R/Y7A/V93K: KOD I142R (exo(−)) mutant with Y7A and V93K” was tested, and the “Results of PCR in the presence of dUTP 1.3 kbp” value (“Results of PCR … of dUTP 1.3 kbp” for short) was “A”, the “Results of PCR in the presence of dUTP 2.8 kbp” value (shortened to “Results of PCR … of dUTP 2.8 kbp”) was “A” and the “Results of PCR in the presence of dUTP 3.6 kbp” value (“Results of PCR … of dUTP 3.6 kbp” below) was “A”. With “KOD D141A/E143A/Y7A/P36H: KOD D141A/E143A (exo(−)) mutant with Y7A and P36H” the “Results of PCR … of dUTP 1.3 kbp” value was “A”, the “Results of PCR … of dUTP 2.8 kbp” value was “A” and the “Results of PCR … of dUTP 3.6 kbp” value was “A”. “KOD D141A/E143A/P36H: KOD D141A/E143A (exo(−)) mutant with P36H” was tested, and the “Results of PCR … of dUTP 1.3 kbp” value was “A”, the “Results of PCR … of dUTP 2.8 kbp” value was “A” and the “Results of PCR … of dUTP 3.6 kbp” value was “A”. For “KOD N210D/P36R: KOD N210D (exo(−)) mutant with P36R”, the “Results of PCR … of dUTP 1.3 kbp” value was “A”, the “Results of PCR … of dUTP 2.8 kbp” value was “A” and the “Results of PCR … of dUTP 3.6 kbp” value was “A”. “KOD H147E/V93Q: KOD H147E (exo(+)) mutant with V93Q” was tested, and the “Results of PCR … of dUTP 1.3 kbp” value was “C”, the “Results of PCR … of dUTP 2.8 kbp” value was “C” and the “Results of PCR … of dUTP 3.6 kbp” value was “C”. With “KOD I142R/Y7A: KOD I142R (exo(−)) mutant with Y7A” the “Results of PCR … of dUTP 1.3 kbp” value was “C”, the “Results of PCR … of dUTP 2.8 kbp” value was “C” and the “Results of PCR … of dUTP 3.6 kbp” value was “C”. “KOD N210D/V93R: KOD N210D (exo(−)) mutant with V93R” was tested, and the “Results of PCR … of dUTP 1.3 kbp” value was “A”, the “Results of PCR … of dUTP 2.8 kbp” value was “B” and the “Results of PCR … of dUTP 3.6 kbp” value was “B”. “KOD P36R/V93K: modified KOD DNA polymerase with P36R and V93K” was tested, and the “Results of PCR … of dUTP 1.3 kbp” value was “C”, the “Results of PCR … of dUTP 2.8 kbp” value was “C” and the “Results of PCR … of dUTP 3.6 kbp” value was “C”. For “KOD Y7A/P115Δ: modified KOD DNA polymerase with Y7A and lacking P115”, the “Results of PCR … of dUTP 1.3 kbp” value was “C”, the “Results of PCR … of dUTP 2.8 kbp” value was “C” and the “Results of PCR … of dUTP 3.6 kbp” value was “C”. “KOD I142R/Y7A/P36R: KOD I142R (exo(−)) mutant with Y7A and P36R” was tested, and the “Results of PCR … of dUTP 1.3 kbp” value was “A”, the “Results of PCR … of dUTP 2.8 kbp” value was “A” and the “Results of PCR … of dUTP 3.6 kbp” value was “B”. For “KOD I142R/Y7A/P36H: KOD I142R (exo(−)) mutant with Y7A and P36H”, the “Results of PCR … of dUTP 1.3 kbp” value was “A”, the “Results of PCR … of dUTP 2.8 kbp” value was “A” and the “Results of PCR … of dUTP 3.6 kbp” value was “C”. With “KOD H147E/P36H: KOD H147E (exo(+)) mutant with P36H” the “Results of PCR … of dUTP 1.3 kbp” value was “B”, the “Results of PCR … of dUTP 2.8 kbp” value was “B” and the “Results of PCR … of dUTP 3.6 kbp” value was “C”. In the case of “KOD H147E/Y7A/P36H: KOD H147E (exo(+)) mutant with Y7A and P36H”, the “Results of PCR … of dUTP 1.3 kbp” value is reported as “A”, the “Results of PCR … of dUTP 2.8 kbp” value is reported as “A” and the “Results of PCR … of dUTP 3.6 kbp” value is reported as “B”. “KOD N210D/P36H: KOD N210D (exo(−)) mutant with P36H” was tested, and the “Results of PCR … of dUTP 1.3 kbp” value was “A”, the “Results of PCR … of dUTP 2.8 kbp” value was “A” and the “Results of PCR … of dUTP 3.6 kbp” value was “A”. With “KOD D141A/E143A/Y7A/V93K: KOD D141A/E143A (exo(−)) mutant with Y7A and V93K” the “Results of PCR … of dUTP 1.3 kbp” value was “A”, the “Results of PCR … of dUTP 2.8 kbp” value was “A” and the “Results of PCR … of dUTP 3.6 kbp” value was “A”. With “KOD H147E/P36H/V93K: KOD H147E (exo(+)) mutant with P36H and V93K” the “Results of PCR … of dUTP 1.3 kbp” value was “A”, the “Results of PCR … of dUTP 2.8 kbp” value was “A” and the “Results of PCR … of dUTP 3.6 kbp” value was “C”. With “KOD N210D/Y7A/P115Δ: KOD N210D (exo(−)) mutant with Y7A and lacking P115” the “Results of PCR … of dUTP 1.3 kbp” value was “C”, the “Results of PCR … of dUTP 2.8 kbp” value was “C” and the “Results of PCR … of dUTP 3.6 kbp” value was “C”. In the case of “KOD D141A/E143A/Y7A: KOD D141A/E143A (exo(−)) mutant with Y7A”, the “Results of PCR … of dUTP 1.3 kbp” value is reported as “C”, the “Results of PCR … of dUTP 2.8 kbp” value is reported as “C” and the “Results of PCR … of dUTP 3.6 kbp” value is reported as “C”. In the case of “KOD D141A/E143A/P36R: KOD D141A/E143A (exo(−)) mutant with P36R”, the “Results of PCR … of dUTP 1.3 kbp” value is reported as “A”, the “Results of PCR … of dUTP 2.8 kbp” value is reported as “A” and the “Results of PCR … of dUTP 3.6 kbp” value is reported as “A”. For “KOD H147E/Y7A/P36R: KOD H147E (exo(+)) mutant with Y7A and P36R”, the “Results of PCR … of dUTP 1.3 kbp” value was “A”, the “Results of PCR … of dUTP 2.8 kbp” value was “A” and the “Results of PCR … of dUTP 3.6 kbp” value was “B”. With “KOD N210D/Y7A: KOD N210D (exo(−)) mutant with Y7A” the “Results of PCR … of dUTP 1.3 kbp” value was “C”, the “Results of PCR … of dUTP 2.8 kbp” value was “C” and the “Results of PCR … of dUTP 3.6 kbp” value was “C”. “KOD N210D/V93Q: KOD N210D (exo(−)) mutant with V93Q” was tested, and the “Results of PCR … of dUTP 1.3 kbp” value was “C”, the “Results of PCR … of dUTP 2.8 kbp” value was “C” and the “Results of PCR … of dUTP 3.6 kbp” value was “C”. For “KOD P115Δ: modified KOD DNA polymerase lacking P115”, the “Results of PCR … of dUTP 1.3 kbp” value was “C”, the “Results of PCR … of dUTP 2.8 kbp” value was “C” and the “Results of PCR … of dUTP 3.6 kbp” value was “C”. “KOD H147E/V93K: KOD H147E (exo(+)) mutant with V93K” was tested, and the “Results of PCR … of dUTP 1.3 kbp” value was “B”, the “Results of PCR … of dUTP 2.8 kbp” value was “B” and the “Results of PCR … of dUTP 3.6 kbp” value was “B”. “KOD H147E/P36R/V93K: KOD H147E (exo(+)) mutant with P36R and V93K” was tested, and the “Results of PCR … of dUTP 1.3 kbp” value was “C”, the “Results of PCR … of dUTP 2.8 kbp” value was “C” and the “Results of PCR … of dUTP 3.6 kbp” value was “C”. For “KOD H147E/P36R: KOD H147E (exo(+)) mutant with P36R”, the “Results of PCR … of dUTP 1.3 kbp” value was “B”, the “Results of PCR … of dUTP 2.8 kbp” value was “B” and the “Results of PCR … of dUTP 3.6 kbp” value was “B”. In the case of “KOD N210D/Y7A/P36R: KOD N210D (exo(−)) mutant with Y7A and P36R”, the “Results of PCR … of dUTP 1.3 kbp” value is reported as “A”, the “Results of PCR … of dUTP 2.8 kbp” value is reported as “A” and the “Results of PCR … of dUTP 3.6 kbp” value is reported as “A”. With “KOD D141A/E143A/V93K: KOD D141A/E143A (exo(−)) mutant with V93K” the “Results of PCR … of dUTP 1.3 kbp” value was “A”, the “Results of PCR … of dUTP 2.8 kbp” value was “B” and the “Results of PCR … of dUTP 3.6 kbp” value was “B”. For “KOD H147E/Y7A: KOD H147E (exo(+)) mutant with Y7A”, the “Results of PCR … of dUTP 1.3 kbp” value was “C”, the “Results of PCR … of dUTP 2.8 kbp” value was “C” and the “Results of PCR … of dUTP 3.6 kbp” value was “C”. “KOD H147E/Y7A/P115Δ: KOD H147E (exo(+)) mutant with Y7A and lacking P115” was tested, and the “Results of PCR … of dUTP 1.3 kbp” value was “C”, the “Results of PCR … of dUTP 2.8 kbp” value was “C” and the “Results of PCR … of dUTP 3.6 kbp” value was “C”. In the case of “KOD I142R/P36R: KOD I142R (exo(−)) mutant with P36R”, the “Results of PCR … of dUTP 1.3 kbp” value is reported as “A”, the “Results of PCR … of dUTP 2.8 kbp” value is reported as “A” and the “Results of PCR … of dUTP 3.6 kbp” value is reported as “A”. With “KOD I142R/V93K: KOD I142R (exo(−)) mutant with V93K” the “Results of PCR … of dUTP 1.3 kbp” value was “A”, the “Results of PCR … of dUTP 2.8 kbp” value was “B” and the “Results of PCR … of dUTP 3.6 kbp” value was “B”. In the case of “KOD H147E/V93R: KOD H147E (exo(+)) mutant with V93R”, the “Results of PCR … of dUTP 1.3 kbp” value is reported as “B”, the “Results of PCR … of dUTP 2.8 kbp” value is reported as “B” and the “Results of PCR … of dUTP 3.6 kbp” value is reported as “B”. For “KOD Y7A/P36R: modified KOD DNA polymerase with Y7A and P36R”, the “Results of PCR … of dUTP 1.3 kbp” value was “A”, the “Results of PCR … of dUTP 2.8 kbp” value was “A” and the “Results of PCR … of dUTP 3.6 kbp” value was “B”. “KOD N210D/Y7A/V93K: KOD N210D (exo(−)) mutant with Y7A and V93K” was tested, and the “Results of PCR … of dUTP 1.3 kbp” value was “A”, the “Results of PCR … of dUTP 2.8 kbp” value was “A” and the “Results of PCR … of dUTP 3.6 kbp” value was “A”. With “KOD N210D/V93K: KOD N210D (exo(−)) mutant with V93K” the “Results of PCR … of dUTP 1.3 kbp” value was “A”, the “Results of PCR … of dUTP 2.8 kbp” value was “B” and the “Results of PCR … of dUTP 3.6 kbp” value was “B”. For “KOD D141A/E143A/Y7A/P36R: KOD D141A/E143A (exo(−)) mutant with Y7A and P36R”, the “Results of PCR … of dUTP 1.3 kbp” value was “A”, the “Results of PCR … of dUTP 2.8 kbp” value was “A” and the “Results of PCR … of dUTP 3.6 kbp” value was “A”. In the case of “KOD N210D/P115Δ: KOD N210D (exo(−)) mutant lacking P115”, the “Results of PCR … of dUTP 1.3 kbp” value is reported as “C”, the “Results of PCR … of dUTP 2.8 kbp” value is reported as “C” and the “Results of PCR … of dUTP 3.6 kbp” value is reported as “C”. “KOD H147E/P115Δ: KOD H147E (exo(+)) mutant lacking P115” was tested, and the “Results of PCR … of dUTP 1.3 kbp” value was “C”, the “Results of PCR … of dUTP 2.8 kbp” value was “C” and the “Results of PCR … of dUTP 3.6 kbp” value was “C”. For “KOD H147E/Y7A/V93K: KOD H147E (exo(+)) mutant with Y7A and V93K”, the “Results of PCR … of dUTP 1.3 kbp” value was “A”, the “Results of PCR … of dUTP 2.8 kbp” value was “A” and the “Results of PCR … of dUTP 3.6 kbp” value was “B”. With “KOD I142R/P36H: KOD I142R (exo(−)) mutant with P36H” the “Results of PCR … of dUTP 1.3 kbp” value was “A”, the “Results of PCR … of dUTP 2.8 kbp” value was “A” and the “Results of PCR … of dUTP 3.6 kbp” value was “A”.

Source: patent US20150218534A1, “MODIFIED DNA POLYMERASE” (TOYOBO CO., LTD., priority 2012, published 2015)
